pIC50: −log10 of the molar value.

For this test, the target named is T1, human Chk1 (GST-Chk1) (Homo sapiens, UniProt O14757).
T1 construct: made in house; host or cells: insect cells (baculovirus, Bac-to-Bac)
T1 sequence (O14757 1-476): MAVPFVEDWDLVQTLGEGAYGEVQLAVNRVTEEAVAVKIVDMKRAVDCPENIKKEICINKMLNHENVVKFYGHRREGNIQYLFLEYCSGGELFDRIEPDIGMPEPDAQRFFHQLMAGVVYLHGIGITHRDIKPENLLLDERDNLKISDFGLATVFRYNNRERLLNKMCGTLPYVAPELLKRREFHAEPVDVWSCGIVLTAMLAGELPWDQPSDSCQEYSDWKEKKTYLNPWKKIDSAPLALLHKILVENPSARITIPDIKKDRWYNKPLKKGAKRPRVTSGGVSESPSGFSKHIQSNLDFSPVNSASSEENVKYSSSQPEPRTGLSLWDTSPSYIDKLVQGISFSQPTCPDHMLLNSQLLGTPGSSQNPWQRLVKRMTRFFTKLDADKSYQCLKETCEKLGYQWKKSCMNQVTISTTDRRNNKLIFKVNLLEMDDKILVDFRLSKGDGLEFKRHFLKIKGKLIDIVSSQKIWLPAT
In words: Chk1 DELFIA kinase assay (2 nM GST-Chk1, 600 μM ATP). It counts as biochemical. As to conditions: Biotin-GLYRSPSMPEN-amide substrate. In short, it runs like this: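 Enzyme is N-terminal GST-Chk1 from baculovirus/insect cells, assayed with 1 μM biotin-GLYRSPSMPEN-amide in pH 7.5 Tris buffer, 4% DMSO and 10 mM MgCl2 for 50 min at room temperature. EDTA-stopped reactions were captured on NeutrAvidin. Phospho-peptide was detected by anti-phospho-Ser216-Cdc25c antibody with europium-labeled secondary and time-resolved fluorescence.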

A word on the pIC50: it is −log10 of the IC50, conventionally taken in molar units. Read a low pIC50 as a high IC50. As to `CC(=O)NCCCc1ccc2c(c1)c1n[nH]c(C)c1c(=O)n2CCCN` [Example 298, N-{3-[5-(3-Amino-propyl)-3-methyl-4-oxo-4,5-dihydro-2H-pyrazolo[4,3-c]quinolin-8-yl]-propyl}-acetamide], the negative-log IC50 (pIC50) was over 6.00.
As for `Cc1[nH]nc2c1c(=O)n(CCCN)c1ccc(N)cc21` [Example 260, 8-Amino-5-(3-amino-propyl)-3-methyl-2,5-dihydro-pyrazolo[4,3-c]quinolin-4-one], the figure is over 6.00; as for `Cc1[nH]nc2c1c(=O)n(CCCN)c1ccc(-c3ccc(N(C)C)cc3)cc21` [Example 307, 5-(3-Amino-propyl)-8-(4-dimethylamino-phenyl)-3-methyl-2,5-dihydro-pyrazolo [4,3-c]quinolin-4-one], over 6.00.
As for `Cc1[nH]nc2c1c(=O)n(CCCN)c1ccc(NC(=O)CCN3CCCCC3)cc21` [Example 369, N-[5-(3-Amino-propyl)-3-methyl4-oxo-4,5-dihydro-2H-pyrazolo[4,3-c]quinolin-8-yl]-3-piperidin-1-yl-propionamide], the figure is over 6.00.
`Cc1[nH]nc2c1c(=O)n(CCC(C)(C)N)c1ccc(Cl)cc21` [Example 229, 5-(3-Amino-3-methyl-butyl)-8-chloro-3-methyl-2,5-dihydro-pyrazolo[4,3-c]quinolin-4-one] gave a pIC50 of over 6.00.
With `CCOCCc1[nH]nc2c1c(=O)n(CCCN)c1ccc(Cl)cc21` [Example 320, 5-(3-Amino-propyl)-8-chloro-3-(2-ethoxy-ethyl)-2,5-dihydro-pyrazolo[4,3-c]quinolin-4-one] the figure was over 6.00.
With `CCc1ccc2c(c1)c1n[nH]c(CCO)c1c(=O)n2CCCO` [Example 363, 8-Ethyl-3-(2-hydroxy-ethyl)-5-(3-hydroxy-propyl)-2,5-dihydro-pyrazolo[4,3-c]quinolin-4-one] the figure was over 6.00; with `CC#Cc1ccc2c(c1)c1n[nH]c(C)c1c(=O)n2CCCN` [Example 283, 5-(3-Amino-propyl)-3-methyl 8-prop-1-ynyl-2,5-dihydro-pyrazolo[4,3-c]quinolin-4-one], over 6.00; with `C#Cc1ccc2c(c1)c1n[nH]c(CC)c1c(=O)n2CCCN` [Compound 360, 5-(3-Amino-propyl)-3-ethyl-8-ethynyl-2,5-dihydro-pyrazolo[4,3-c]quinolin-4-one], over 6.00.
As to `CNCC(O)Cn1c(=O)c2c(C)[nH]nc2c2cc(Cl)ccc21` (stereo not shown) [Example 247, 8-Chloro-5-(2-hydroxy-3-methylamino-propyl)-3-methyl-2,5-dihydro-pyrazolo[4,3-c]quinolin-4-one], the pIC50 is over 6.00.
`Cc1[nH]nc2c1c(=O)n(CCCN)c1ccc(NC(=O)CCN)cc21` [Compound 357, 3-Amino-N-[5-(3-amino-propyl)-3-methyl-4-oxo-4,5-dihydro-2H-pyrazolo[4,3-c]quinolin-8-yl]-propionamide] had a pIC50 of over 6.00.
With `CC(=O)Nc1ccc2c(c1)c1n[nH]c(C)c1c(=O)n2CCCN` [Example 261, N-[5-(3-Amino-propyl)-3-methyl-4-oxo-4,5-dihydro-2H-pyrazolo[4,3-c]quinolin-8-yl]-acetamide] the figure was over 6.00; with `Cc1[nH]nc2c1c(=O)n(C)c1c(C#CCN)cc(Cl)cc21` [Example 342, 6-(3-amino-prop-1-ynyl)-8-chloro-3,5-dimethyl-2,5-dihydro-pyrazolo[4,3-c]quinolin-4-one], over 6.00; with `Cc1[nH]nc2c1c(=O)n(CCCN)c1cc(C(=O)NCCCN(C)C)ccc21` [Example 337], over 6.00.
Regarding `CCCNCC(O)CCn1c(=O)c2c(C)[nH]nc2c2cc(Cl)ccc21` (stereo not shown) [Example 250, 8-Chloro-5-(3-hydroxy-4-propylamino-butyl)-3-methyl-2,5-dihydro-pyrazolo[4,3-c]quinolin-4-one], the pIC50 was over 6.00.
Take `Cc1[nH]nc2c1c(=O)n(CCCN)c1ccc(C#CCN)cc21` [Example 273, 5-(3-Amino-propyl)-8-(3-amino-prop-1-ynyl]-3-methyl 2,5-dihydro-pyrazolo[4,3-c]quinolin-4-one]: the pIC50 was over 6.00.
As to `Cc1[nH]nc2c1c(=O)n(CCCN)c1ccc(C#CCN3CCCC3)cc21` [Example 285, 5-(3-Amino-propyl)-3-methyl-8-(3-pyrrolidin-1-yl-prop-1-ynyl]-2,5-dihydro-pyrazolo[4,3-c]quinolin4-one], the pIC50 is over 6.00.
In the case of `Cc1[nH]nc2c1c(=O)n(CCCN)c1ccc(NC(=O)[C@@H]3CCCN3)cc21` [Example 262, Pyrrolidine-2S-carboxylic acid [5-(3-amino-propyl)-3-methyl-4-oxo-4,5-dihydro-2H-pyrazolo[4,3-c]quinolin-8-yl]-amide], the pIC50 is over 6.00.
With `CCCc1ccc2c(c1)c1n[nH]c(C)c1c(=O)n2CCCN` [Example 302, 5-(3-Amino-propyl)-3-methyl-8-propyl-2,5-dihydro-pyrazolo[4,3-c]quinolin4-one] the figure was over 6.00; with `CNCC(O)CCn1c(=O)c2c(C)[nH]nc2c2cc(Cl)ccc21` (stereo not shown) [Example 249, 8-Chloro-5-(3-hydroxy-4-methylamino-butyl)-3-methyl-2,5-dihydro-pyrazolo[4,3-c]quinolin-4-one], over 6.00; with `Cc1[nH]nc2c1c(=O)n(CCCN)c1ccc(CCCN(C)C)cc21` [Example 296, 5-(3-Amino-propyl)-8-(3-dimethylamino-propyl)-3-methyl-2,5-dihydro-pyrazolo[4,3-c]quinolin-4-one], over 6.00.
With `COC(C)Cc1[nH]nc2c1c(=O)n(CCCN)c1ccc(Cl)cc21` (stereo not shown) [Compound 324, 5-(3-Amino-propyl)-8-chloro-3-(2-methoxy-propyl)-2,5-dihydro-pyrazolo[4,3-c]quinolin-4-one] the figure was 5.00 to 6.00; with `Cc1[nH]nc2c1c(=O)n(CCCN)c1cc(C(=O)NCCN3CCCC3)ccc21` [Example 336, 5-(3-Amino-propyl)-3-methyl-4-oxo-4,5-dihydro-2H-pyrazolo[4,3-c]quinolin-7-carboxylic acid (2-pyrrolidin-1-yl-ethyl)-amide], over 6.00.
With `Cc1[nH]nc2c1c(=O)n(CCCN)c1ccc(C#N)cc21` [Example 271, 5-(3-Amino-propyl)-3-methyl-4-oxo-4,5-dihydro-2H-pyrazolo[4,3-c]quinoline-8-carbonitrile], the pIC50 is over 6.00.
In turn, `COCCc1[nH]nc2c1c(=O)n(C[C@H]1CCCNC1)c1ccc(Cl)cc21` [Example 227, 8-Chloro-3-(2-methoxy-ethyl)-5S-piperidin-3-ylmethyl-2,5-dihydro-pyrazolo[4,3-c]quinolin-4-one] had a pIC50 of over 6.00.
With `CC(=O)NCC#Cc1ccc2c(c1)c1n[nH]c(C)c1c(=O)n2CCCN` [Example 276, N-{^3-[5-(3-Amino-propyl)-3-methyl-4-oxo4,5-dihydro-2H-pyrazolo[4,3-c]quinolin-8-yl]-prop-2-ynyl]-acetamide] the figure was over 6.00.
On to `Cc1[nH]nc2c1c(=O)n(CCCN)c1ccc(-c3cccnc3)cc21` [Example 308, 5-(3-Amino-propyl)-3-methyl-8-pyridin-3-yl-2,5-dihydro-pyrazolo[4,3-c]quinolin-4-one], for which the pIC50 is over 6.00.
With `Cc1[nH]nc2c1c(=O)n(CCCN)c1cc(I)ccc21` [Example 339, 5-(3-Aminopropyl)-7-iodo-3-methyl-2,5-dihydro-pyrazolo[4,3-c]quinolin4-one] the figure was over 6.00.
